Experiments:
[1] = Cytotoxicity against differentiated mouse 3T3-F442A cells assessed as depletion of mitochondrial DNA level at 10 uM by real-time PCR; type: cell-based
[2] = Cytotoxicity against differentiated mouse 3T3-F442A cells assessed as depletion of mitochondrial DNA level at 1 uM by real-time PCR; type: cell-based
[3] = Cytotoxicity against differentiated mouse 3T3-F442A cells assessed as effect on total deoxynucleotides content at 1 uM after 2 to 10 days; type: cell-based
[4] = Cytotoxicity against differentiated mouse 3T3-F442A cells assessed as effect on total deoxynucleotides content at 10 uM after 2 to 10 days; type: cell-based
[5] = Cytotoxicity against differentiated mouse 3T3-F442A cells assessed as increase in total deoxynucleotides content at 10 uM after 2 to 10 days; type: cell-based
[6] = Increase in mitochondrial DNA level in differentiated mouse 3T3-F442A cells at 10 uM by real-time PCR; type: ADME
[7] = Increase in mitochondrial DNA level in differentiated mouse 3T3-F442A cells at 1 uM by real-time PCR; type: ADME
[8] = Cytotoxicity against differentiated mouse 3T3-F442A cells assessed as increase in TTP content after 10 days; type: cell-based; conditions: 240 h

Cc1cn([C@H]2C=C[C@@H](CO)O2)c(=O)[nH]c1=O [STAVUDINE]
Activity [1]: Toxic | Activity [2]: Non-toxic | Activity [3]: Non-toxic | Activity [4]: Non-toxic | Activity [5]: Toxic

Cc1cn([C@H]2C[C@H](N=[N+]=[N-])[C@@H](CO)O2)c(=O)[nH]c1=O [ZIDOVUDINE]
Activity [6]: Non-toxic | Activity [7]: Non-toxic | Activity [3]: Non-toxic | Activity [4]: Non-toxic | Activity [8]: 35%
